Measurements published in patent publication US9556130B2, “4-oxo-3,4-dihydro-1,2,3-benzotriazine modulators of GPR139” (Takeda Pharmaceutical Company Limited, priority 2014, dated 2017).
One block for each molecule: values may come before it.

Key:
[1] = test system: c-Fos immunoreactivity in the dorsal medial habenula; assay: cFos Staining; assay type: in vivo, C57/B16 mice; conditions: oral
Procedure: Methods: After dosing C57/B16 mice for various time courses their brains were prepared for immunohistochemistry. […] Brains are extracted and placed in 4% paraformaldehyde for 3 hours, changed into 20% sucrose/PBS solution to avoid freezing artifacts, and frozen with dry ice. Frozen brain sections are obtained with sliding microtome at 20 um and washed in PBS (2 times for 10 minutes each). Endogenous peroxidase enzyme is blocked with 0.3% H2O2 solution in water for 10 minutes. Sections are rinsed in PBS (3 times for 10 minutes each) and incubated in primary antibody against cFos (Santa Cruz SC-42) at a dilution of 1:10,000 at 4° C. overnight in PBS+0.3% triton and 1% bovine serum albumin. Sections are subsequently rinsed in PBS (3 times for 10 minutes each) and incubated in secondary antibody: goat against rabbit-biotinylated antibody, at a dilution of 1:200 for 1 hour at room temperature in PBS+0.3% triton and 1% bovine serum albumin. Sections are rinsed in PBS (3 times for 10 minutes each) and incubated in ABC mix in PBS; ABC Elite Kit from Vector (PK-1000) for 1 hour at room temperature. Next, the sections are rinsed in PBS (3 times for 10 minutes each) and then in 0.1 M sodium acetate (3 times for 10 minutes each). Reaction is visualized with standard diaminobenzydine procedures: 50 mL of 0.1M sodium acetate containing 20 mg ammonium chloride, 20 mg, diaminobenzydine, 80 mg glucose and 10 mL of glucose oxidase. React for 10 minutes then the reaction is stopped with PBS rinses (3 times for 10 minutes each). cFos cells are then counted.

human GPR139 receptor [2] = molecular target: T1, human GPR139 receptor (Homo sapiens (Human), UniProt Q6DWJ6); assay: GPR139 Competition Binding; conditions: stably transfected CHO-TRex membranes, 1 nM 3H radioligand; read-out: GPR139 Inhibition (Ki (nM));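 also: receptor expression induced with doxycycline before membrane preparation, bound radioactivity counted by scintillation, Ki fitted with a four-parameter logistic model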
human GPR139 receptor [3] = molecular target: T1, human GPR139 receptor; assay: Activation of Calcium Signaling of GPR139 In Vitro Assay; assay type: cell-based; conditions: stably transfected CHO-TRex cells, Calcium 5 dye, FLIPR Tetra;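 also: receptor expression induced with doxycycline, calcium fluorescence read continuously for one minute after compound addition, EC50 taken from a four-parameter logistic fit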

T1 sequence (Q6DWJ6 whole entry): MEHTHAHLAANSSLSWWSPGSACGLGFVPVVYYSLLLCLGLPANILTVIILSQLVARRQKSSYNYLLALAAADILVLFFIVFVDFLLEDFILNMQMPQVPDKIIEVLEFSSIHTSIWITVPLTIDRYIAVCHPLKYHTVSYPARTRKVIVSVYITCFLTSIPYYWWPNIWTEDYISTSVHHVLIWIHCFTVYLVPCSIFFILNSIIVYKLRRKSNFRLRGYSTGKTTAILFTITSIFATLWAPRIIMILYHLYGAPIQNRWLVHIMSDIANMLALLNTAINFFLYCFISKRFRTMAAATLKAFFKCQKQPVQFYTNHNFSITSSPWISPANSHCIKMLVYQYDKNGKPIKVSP

Compound: COc1cccc2nnn(CC(=O)N[C@@H](C)c3ccc(C)cc3)c(=O)c12 [Example 3, (S)-2-(5-methoxy-4-oxobenzo[d][1,2,3]triazin-3(4H)-yl)-N-(1-p-tolylethyl)acetamide]
cFos cell count, Mean ([1]; dose-response and time course experiment, 0.03 mg/kg 1 hr): 1628 | cFos cell count, Mean ([1]; dose-response and time course experiment, 0.1 mg/kg 1 hr): 2243 | cFos cell count, Mean ([1]; dose-response and time course experiment, 0.3 mg/kg 1 hr): 2458 | cFos cell count, Mean ([1]; dose-response and time course experiment, 0.3 mg/kg 2 hr): 2777 | cFos cell count, Mean ([1]; dose-response and time course experiment, 0.3 mg/kg 4 hr): 865 | cFos cell count, Mean ([1]; dose-response and time course experiment, 3 mg/kg 1 hr): 2023

Ki (human GPR139 receptor [2]): 3600 nM | EC50 (human GPR139 receptor [3]): 27 nM
Compound: COc1ccc([C@H](C)NC(=O)Cn2nnc3c(F)cccc3c2=O)cc1 [Example 17, (S)-2-(8-fluoro-4-oxobenzo[d][1,2,3]triazin-3(4H)-yl)-N-(1-(4-methoxyphenyl)ethyl)acetamide]

Compound: C[C@H](NC(=O)Cn1nnc2ccccc2c1=O)c1ccc(OC(F)(F)F)cc1 [Example 2, (S)-2-(4-oxobenzo[d][1,2,3]triazin-3(4H)-yl)-N-(1-(4-(trifluoromethoxy)phenyl)ethyl)acetamide]
cFos cell count, Mean ([1]; desensitization experiment, 0.1 mg/kg 1d): 1486 | cFos cell count, Mean ([1]; desensitization experiment, 0.1 mg/kg 5d): 1928 | cFos cell count, Mean ([1]; desensitization experiment, 0.1 mg/kg 10d): 1684 | cFos cell count, Mean ([1]; dose response curve experiment, 0.01 mg/kg): 1376 | cFos cell count, Mean ([1]; dose response curve experiment, 0.03 mg/kg): 986.3 | cFos cell count, Mean ([1]; dose response curve experiment, 0.1 mg/kg): 1381 | cFos cell count, Mean ([1]; dose response curve experiment, 0.3 mg/kg): 1408 | cFos cell count, Mean ([1]; dose response curve experiment, 1 mg/kg): 1368 | cFos cell count, Mean ([1]; time course experiment, 0.1 mg/kg 1 hr): 787.7 | cFos cell count, Mean ([1]; time course experiment, 0.3 mg/kg 1 hr): 1343 | cFos cell count, Mean ([1]; time course experiment, 0.3 mg/kg 2 hr): 1400 | cFos cell count, Mean ([1]; time course experiment, 0.3 mg/kg 4 hr): 2170 | cFos cell count, Mean ([1]; time course experiment, 3 mg/kg 1 hr): 2365

Ki (human GPR139 receptor [2]): 183 nM | EC50 (human GPR139 receptor [3]): 50 nM
Compound: CC[C@H](NC(=O)Cn1nnc2ccccc2c1=O)c1ccc(OC(F)(F)F)cc1 [Example 86, (S)-2-(4-oxobenzo[d][1,2,3]triazin-3(4H)-yl)-N-(1-(4-(trifluoromethoxy)phenyl)propyl)acetamide]
